Counter-ions that a name gives are not always drawn. Each block holds one molecule with its values, some of them ahead of it.
Assays:
C. parvum [1] = experiment: C. parvum growth assay in HCT-8 cells: indole analog screen and dose-response; assay type: cell-based, Cryptosporidium parvum; conditions: for Effect on Cp infection in the indole analog screen: 1 mM, HCT-8 cells; for EC50: Cryptosporidium parvum, HCT-8, 24 h, read-out: Cp EC50
[2] = tested on: C. parvum-infected GKO mice; experiment: Metabolite treatment of C. parvum-infected GKO mice; assay type: in vivo, mouse; conditions: 50 mg/kg oral gavage twice daily for 7 days
C. parvum [3] = experiment: Initial screen of metabolites on C. parvum growth in HCT-8 cells; assay type: cell-based, Cryptosporidium parvum; conditions: 1 mM or 0.1 mM, 24 hpi
[4] = tested on: HCT-8 AhR WT cells or AhR KO cells; experiment: Seahorse XF Cell Energy Phenotype Test on HCT-8 AhR WT and AhR KO cells; assay type: cell-based, human; conditions: 18 h; 0.5, 1 or 2 mM; both HCT-8 WT and AhR KO cells
C. parvum [5] = experiment: Sliding window treatment with indoles; assay type: cell-based, Cryptosporidium parvum; conditions: EC90 concentration
C. parvum [6] = experiment: Antibody and EdU labeling of C. parvum life cycle stages; assay type: cell-based, Cryptosporidium parvum; conditions: EC90 concentration; for Effect on Cp life cycle progression: first 24 hpi
Cp mitosome = experiment: MitoTracker staining of indole treated C. parvum; assay type: cell-based, Cryptosporidium parvum; conditions: indole 1.76 mM, 7CNI 1 mM, CCCP 10 μM; 2 h or 24 h
C. parvum [7] = experiment: Air-liquid interface; assay type: cell-based, Cryptosporidium parvum; conditions: for Cp growth recovery after washout / Time after washout to significant recovery in Cp growth: ALI; for Time after washout to significant recovery in Cp growth: treated at EC50 for two days; for EC50 / EC90: Cryptosporidium parvum; for EC50: read-out: Cp EC50 in ALI cultures; for EC90: read-out: Cp EC90 in ALI cultures
HCT-8 cells [8] = experiment: Transcriptomics; assay type: cell-based, human; conditions: 880 μM; 4 or 12 h; FDR p < 0.05, absolute fold change > 2
HCT-8 cells [9] = experiment: Seahorse metabolic assays; assay type: cell-based, human; conditions: 18 h; indole 0.5-2 mM, 7CNI 0.25-1 mM
C. parvum [10] = experiment: C. parvum growth assay in HCT-8 AhR WT vs AhR KO cell lines; assay type: cell-based, Cryptosporidium parvum; conditions: 1 mM; 24 h
HCT-8 cells [11] = experiment: Initial metabolite screen: host cell numbers; assay type: cell-based, human; conditions: 1 mM
C. parvum [12] = experiment: C. parvum growth assay with mitochondrial inhibitors; assay type: cell-based, Cryptosporidium parvum; conditions: read-out: Cp EC50
HCT-8 cells [13] = experiment: Host nuclei ratio with mitochondrial inhibitors; assay type: cell-based, human; conditions: 40 μM and 20 μM

Compound: O=C(O)CCc1c[nH]c2ccccc12 [Indole-3-propionic acid]
- Effect on Cp infection in the indole analog screen (C. parvum [1]): did inhibit Cp

Compound: c1ccc2[nH]ccc2c1 [Indole]
- EC50 (C. parvum [1]): 411 µM
- Cp oocysts shed in the feces [2]: no significant effect on Cp infection in vivo
- Median survival time [2]: 17 dpi
- Effect on Cp growth in the primary metabolite screen (C. parvum [3]): significantly inhibited Cp growth
- Mitochondrial basal and stressed respiratory rate [4]: significantly impaired in a dose-dependent manner
- Effect on Cp growth, treatment 0–4 hpi only (C. parvum [5]): neither indole nor 7CNI inhibited Cp growth
- Effect on Cp infection, treatment started 4 hpi (4–24 hpi) (C. parvum [5]): significantly inhibited Cp infection
- Effect on Cp infection of pre-treatment of host cells (C. parvum [5]; 20 h before infection): did not affect subsequent Cp infection
- Morphology of mature merozoites (C. parvum [6]; 22 h, 1E12 labeling): did not observe any obvious morphological defects in mature merozoites
- Effect on Cp life cycle progression (C. parvum [6]): delayed progression through sequential life cycle stages
- MitoTracker staining of Cp mitosomes (Cp mitosome): significantly decreased MitoTracker staining of Cp mitosomes
- Cp growth recovery after washout (C. parvum [7]; treated at 2 × EC90 for two days): no recovery was observed
- Time after washout to significant recovery in Cp growth (C. parvum [7]): 2 days
- Cp growth recovery after washout (C. parvum [7]; treated at EC90 for two days): Some growth recovery (though not significant)
- EC50 (C. parvum [7]): 577 µM
- EC90 (C. parvum [7]): 1890 µM
- Downregulated genes (HCT-8 cells [8]): 11 genes
- Genes significantly differentially expressed after treatment (HCT-8 cells [8]): 68 genes
- Upregulated genes (HCT-8 cells [8]): 57 genes
- ATP production rate by glycolysis (HCT-8 cells [9]): remained similar between all treatments
- ATP production rate by the mitochondria (HCT-8 cells [9]): significant reduction in ATP production rate by the mitochondria
- Basal and maximal levels of mitochondrial respiration (OCR) (HCT-8 cells [9]): significantly reduced both basal levels and maximal levels of mitochondrial respiration
- Spare respiratory capacity (HCT-8 cells [9]): diminished
- Total ATP production rate (HCT-8 cells [9]): lower total ATP production rate
- Cp sensitivity to inhibition in AhR KO cells (C. parvum [10]): remained sensitive

Compound: C[C@H](CCC(=O)O)[C@H]1CC[C@H]2[C@@H]3CC[C@@H]4C[C@H](O)CC[C@]4(C)[C@H]3C[C@H](O)[C@]12C [Deoxycholic acid]
- Effect on Cp growth in the primary metabolite screen (C. parvum [3]): significantly inhibited Cp growth
- Host toxicity in the initial screen (HCT-8 cells [11]): significant host toxicity at 1 mM

Compound: NC(=O)Cc1c[nH]c2ccccc12 [Indole-3-acetamide]
- Effect on Cp infection in the indole analog screen (C. parvum [1]): exceptions

Compound: Cc1c[nH]c2ccccc12 [3-methylindole]
- Effect on Cp infection in the indole analog screen (C. parvum [1]): did inhibit Cp

Compound: C[C@H](CCC(=O)O)[C@H]1CC[C@H]2[C@@H]3CC[C@@H]4C[C@H](O)CC[C@]4(C)[C@H]3C[C@H](O)[C@]12C [Deoxycholate, sodium deoxycholate]
- Effect on Cp growth in the primary metabolite screen (C. parvum [3]): significantly inhibited Cp growth
- Host toxicity in the initial screen (HCT-8 cells [11]): significant host toxicity at 1 mM

Compound: N#Cc1cccc2cc[nH]c12 [7-cyanoindole]
- Body weight [2]: weighed significantly more than vehicle- or indole-treated mice 5 and 7 dpi
- Survival rate [2]: did not significantly increase survival rate
- Effect on Cp growth, treatment 0–4 hpi only (C. parvum [5]): neither indole nor 7CNI inhibited Cp growth
- Effect on Cp infection, treatment started 4 hpi (4–24 hpi) (C. parvum [5]): significantly inhibited Cp infection
- Effect on Cp life cycle progression (C. parvum [6]): delayed progression through sequential life cycle stages
- MitoTracker staining of Cp mitosomes (Cp mitosome): significantly decreased MitoTracker staining of Cp mitosomes
- Time after washout to significant recovery in Cp growth (C. parvum [7]): 4 days
- EC50 (C. parvum [7]): 379 µM
- EC90 (C. parvum [7]): 688 µM
- ATP production rate by glycolysis (HCT-8 cells [9]): remained similar between all treatments
- ATP production rate by the mitochondria (HCT-8 cells [9]): significant reduction in ATP production rate by the mitochondria

Compound: CCCCC[C@H](O)/C=C/[C@H]1[C@H](O)CC(=O)[C@@H]1C/C=C\CCCC(=O)O [Prostaglandin E2]
- Host toxicity in the initial screen (HCT-8 cells [11]): significant host toxicity at 1 mM

- EC50 (C. parvum [1]): 213 µM
- Fold Selectivity (HCT-8 EC50 divided by Cp EC50) (C. parvum [1]; host value from nuclei count): 44.6 fold
Compound: Cc1ncc(CO)c(C=O)c1O [Pyridoxal hydrochloride]
- Effect on Cp growth in the primary metabolite screen (C. parvum [3]): significantly inhibited Cp growth

- EC50 (C. parvum [1]): 1260 µM
Compound: Oc1cccc2[nH]ccc12 [4-Hydroxyindole]
- Effect on Cp growth in the primary metabolite screen (C. parvum [3]): significantly inhibited Cp growth

Compound: C[C@H](CCC(=O)O)[C@H]1CC[C@H]2[C@@H]3CC[C@@H]4C[C@H](O)CC[C@]4(C)[C@H]3CC[C@]12C [Lithocholic acid]
- Effect on Cp growth in the primary metabolite screen (C. parvum [3]): significantly inhibited Cp growth
- Host toxicity in the initial screen (HCT-8 cells [11]): significant host toxicity at 1 mM

Compound: O=C(O)Cc1c[nH]c2ccc(O)cc12 [5-Hydroxyindole-3-acetic acid]
- Effect on Cp growth in the primary metabolite screen (C. parvum [3]): no effect on Cp

Compound: N#CC(C#N)=NNc1cccc(Cl)c1 [CCCP, carbonyl cyanide m-chlorophenyl hydrazone]
- EC50 (C. parvum [12]; HCT-8 cells, 24 h): 5 µM
- MitoTracker staining of Cp mitosomes (Cp mitosome): decreases MitoTracker staining in the Cp mitosome
- Host toxicity (HCT-8 cells [13]): observed host toxicity

Compound: CC[C@H]1/C=C/C=C/C[C@@H](C)[C@H](O)[C@@](C)(O)C(=O)[C@@H](C)[C@H](O)[C@@H](C)C(=O)[C@@H](C)[C@H](O)[C@@H](C)/C=C/C(=O)O[C@@H]2[C@H](C)[C@H](CC1)O[C@]1(CC[C@H](C)[C@H](C[C@@H](C)O)O1)[C@H]2C [oligomycin]
- EC50 (C. parvum [12]; Cryptosporidium parvum, HCT-8, 24 h): 20.6 µM

Compound: O=C(O)C(O)Cc1c[nH]c2ccccc12 (stereo not drawn) [indole-3-lactic acid]
- Effect on Cp infection in the indole analog screen (C. parvum [1]): exceptions

— paper PMC10530208 (Cell reports, 2023)
